{"source": "patent EP0248972A2", "about": "“Ammoniummonofluorophosphates, process for their preparation and their use” (Benckiser-Knapsack GmbH, priority 1986, dated 1987)", "assay": "Behaviour with water (emulsion formation)", "assay_type": "physicochemical", "conditions": "mit Wasser bei 20 C", "data": [{"smiles": "CCCCCCCC/C=C\\CCCCCCCCNCCCN", "note": "[N-Oleyl-1,3-diammoniumpropanmonofluorophosphat]", "values": [{"measurement": "Verhalten mit Wasser", "result": "stabile Emulsion"}]}]}
